{"source": "paper PMC6212438", "about": "“Vapor detection and discrimination with a panel of odorant receptors” (Nature Communications, 2018)", "target": "T1, Olfr1484 (Mus musculus, UniProt Q8VEU6)", "T1 construct": "gene Or5b122; full ORF with N-terminal Rho-tag (first 20 residues of human rhodopsin), Hana3A cells, co-expressed RTP1S", "T1 sequence (Q8VEU6 1-315)": "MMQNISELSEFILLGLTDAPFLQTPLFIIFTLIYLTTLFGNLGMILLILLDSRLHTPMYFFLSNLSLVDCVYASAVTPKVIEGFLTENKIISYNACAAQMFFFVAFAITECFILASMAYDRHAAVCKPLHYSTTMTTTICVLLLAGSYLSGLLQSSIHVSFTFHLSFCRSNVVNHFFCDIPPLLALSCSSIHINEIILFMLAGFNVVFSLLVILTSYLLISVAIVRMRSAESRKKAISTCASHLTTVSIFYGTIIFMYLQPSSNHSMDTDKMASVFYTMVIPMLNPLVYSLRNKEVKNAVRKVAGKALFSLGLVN", "assay": "GloSensor cAMP luminescence in Hana3A cells", "assay_type": "cell-based", "conditions": "agonist; vapor-phase stimulation, odorant diluted in mineral oil", "data": [{"smiles": "O=C1CCCCC1", "note": "[cyclohexanone]", "values": [{"measurement": "GloSensor cAMP luminescence in Hana3A cells", "result": "Olfr1484 to cyclohexanone (CH)"}]}]}
